Measured values as given in US20220009914A1, “Analogs of Nitrofuran Antibiotics to Combat Resistance” (The Trustees of Indiana University, priority 2020, published 2022).
Where two headings read alike, the source gives them in different places.

Tests used:
[1] = target: T1, E. coli GroEL/ES (Escherichia coli, UniProt P0A6F5); test: GroEL/ES-mediated dMDH refolding assay in the presence of E. coli NfsB nitroreductase; format: biochemical; settings: for GroEL/ES inhibition in words: in the presence of E. coli NfsB
T1 construct: made in house; host or cells: GroEL in NEB 5-alpha E. coli; GroES in E. coli BL21 (DE3)
T1 sequence (P0A6F5 2-548): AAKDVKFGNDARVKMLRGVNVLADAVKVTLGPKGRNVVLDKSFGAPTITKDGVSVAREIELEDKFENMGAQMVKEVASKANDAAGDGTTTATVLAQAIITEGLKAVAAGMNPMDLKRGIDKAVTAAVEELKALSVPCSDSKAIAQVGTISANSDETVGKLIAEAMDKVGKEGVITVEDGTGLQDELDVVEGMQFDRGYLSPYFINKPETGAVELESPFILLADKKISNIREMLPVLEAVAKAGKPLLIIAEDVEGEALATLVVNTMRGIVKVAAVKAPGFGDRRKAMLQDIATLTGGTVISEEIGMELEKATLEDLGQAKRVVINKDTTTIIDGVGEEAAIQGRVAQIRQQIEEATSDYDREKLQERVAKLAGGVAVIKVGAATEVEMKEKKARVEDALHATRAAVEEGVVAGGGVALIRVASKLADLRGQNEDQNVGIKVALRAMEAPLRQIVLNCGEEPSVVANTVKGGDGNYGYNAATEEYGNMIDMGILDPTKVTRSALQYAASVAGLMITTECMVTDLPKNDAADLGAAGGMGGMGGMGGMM
Method: Evaluating compounds for inhibition in the GroEL/ES-mediated dMDH refolding assay and native MDH activity counter-screen in the presence of E. coli NfsB nitroreductase. These assays were performed nearly identically to those mentioned above, but with a couple distinct modifications. For both assays, 10 μg/mL of the E. coli NfsB nitroreductase enzyme (Sigma product #N9284) was added to the initial GroEL/ES-dMDH solution. For the GroEL/ES-dMDH refolding assay, after stamping with compounds, 10 μL of a 2.4 mM NADH solution was added, followed by a 10 minute incubation period at 37° C. to bioactivate the nitrofuran analogs. The remainder of the assay was conducted as in our standard protocol where no NfsB nitroreductase was present. […] For the native MDH activity counter-screen in the presence of E. coli NfsB nitroreductase, the assay was performed as described above for the GroEL/ES-dMDH refolding assay with NfsB; however, compound addition to the assay plates was conducted after the EDTA quench step, followed by a 10 minute incubation period at 37° C. to bioactivate the nitrofuran analogs. […] Results presented represent the averages of IC50 values obtained from at least four replicates in each assay.
Evaluating analogs for inhibiting GroEL/ES-mediated substrate refolding functions in the presence of the E. coli NfsB type-1 nitroreductase. […] However, our standard GroEL/ES-mediated refolding assays and native substrate reporter counter-screens were conducted without nitroreductases present.

[2] = target: T2, native MDH (Sus scrofa, UniProt P00346); test: native MDH enzymatic activity counter-screen; format: biochemical, pig
T2 sequence (P00346 25-338): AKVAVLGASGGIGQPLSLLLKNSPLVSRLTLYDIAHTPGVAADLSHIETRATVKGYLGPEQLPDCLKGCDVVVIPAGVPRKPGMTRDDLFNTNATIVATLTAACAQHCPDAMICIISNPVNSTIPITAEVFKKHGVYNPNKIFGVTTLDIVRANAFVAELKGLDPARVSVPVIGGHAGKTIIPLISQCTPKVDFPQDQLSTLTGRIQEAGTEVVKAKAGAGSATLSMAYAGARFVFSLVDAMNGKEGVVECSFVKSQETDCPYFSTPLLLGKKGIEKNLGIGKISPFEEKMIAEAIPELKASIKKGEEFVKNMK
Method: Reagent Preparations & Assay Protocol: This assay was performed as described above for the GroEL/ES-dMDH refolding assay; however, the assay protocol differed in the sequence of compound addition to the assay plates. The refolding reactions were allowed to proceed for 45 min at 37° C. in the absence of test compounds (complete refolding of MDH occurs), then quenched with the EDTA stock. Compounds were then pin-transferred into the plates after the EDTA quenching step; thus, compound effects are only possible by inhibiting the fully-refolded MDH reporter substrate. […] A340 nm measurements were recorded at 0.5 minutes (start point) and at successive time points until the amount of NADH consumed reached ˜90% (end point, generally between 20-35 minutes). Compounds were tested in 8-point, 3-fold dilution series (62.5 μM to 29 nM during the reporter reaction) in clear, flat-bottom 384-well microtiter plates. IC50 values for the MDH reporter enzyme were determined as described above. Results presented represent the averages of IC50 values obtained from at least five replicates.
Evaluating analogs for inhibiting GroEL/ES-mediated substrate refolding functions. […] We first evaluated all test compounds in our standard GroEL/ES-mediated refolding assays that employ either malate dehydrogenase (MDH) or rhodanese (Rho) as the denatured substrate reporter enzymes. When denatured, these enzymes are efficiently folded by GroEL/ES in the absence of inhibitors, and thus act as reporters to determine the degree of inhibition against the bacterial chaperonin system. Inhibition was examined in the presence of these two orthogonal substrates in order to support that GroEL/ES inhibitors were on-target. To further support on-target effects against GroEL/ES, we counter-screened for inhibition of the native MDH and Rho enzymatic reporter reactions, where test compounds were added after the denatured MDH and Rho substrate enzymes were completely refolded by GroEL/ES.

[3] = without NfsB nitroreductase, compounds added after refolding, read-out: Native MDH Activity IC50
[4] = with E. coli NfsB nitroreductase, read-out: NfsB-GroEL/ES-dMDH Refolding IC50

O=C(N/N=C/c1ccc([N+](=O)[O-])o1)c1cccc(Oc2ccccc2)c1 [Compound 24, N′-((5-nitrofuran-2-yl)methylene)-3-phenoxybenzohydrazide]
IC50 [1]: 2.8 µM | IC50 [2, 3]: > 63 µM

COc1ccc(C(=O)NN)cc1 [Compound 42, reference compound]
IC50 [1]: > 83 µM | IC50 [2, 3]: > 63 µM

O=C(N/N=C/c1ccc([N+](=O)[O-])o1)c1ccc(Cl)s1 [Compound 17, 5-chloro-N′-((5-nitrofuran-2-yl)methylene)thiophene-2-carbohydrazide]
GroEL/ES inhibition in words [1]: most potent at inhibiting GroEL/ES in the presence of NfsB | IC50 [1, 4]: 3.2 µM

COc1ccc(C(=O)N/N=C/c2ccc(O)c3ccccc23)cc1 [Compound 29, N′-((4-hydroxynaphthalen-1-yl)methylene)-4-methoxybenzohydrazide]
IC50 [1]: > 83 µM | IC50 [2, 3]: > 63 µM

O=C(N/N=C/c1ccc(O)c2ncccc12)c1ccccc1Oc1ccccc1 [Compound 10, N′-((8-hydroxyquinolin-5-yl)methylene)-2-phenoxybenzohydrazide]
IC50 [1]: 15 µM | IC50 [2, 3]: > 63 µM

O=C(N/N=C/c1ccc([N+](=O)[O-])o1)c1cccs1 [Compound 16, N′-((5-nitrofuran-2-yl)methylene)thiophene-2-carbohydrazide]
IC50 [1, 4]: 7.7 µM

O=C(N/N=C/c1ccc([N+](=O)[O-])o1)c1cccc2ccccc12 [Compound 22, N′-((5-nitrofuran-2-yl)methylene)-1-naphthohydrazide]
IC50 [1]: 5.3 µM | IC50 [2, 3]: > 63 µM

O=C(N/N=C/c1ccc([N+](=O)[O-])o1)c1ccccc1Oc1ccccc1 [Compound 23, N′-((5-nitrofuran-2-yl)methylene)-2-phenoxybenzohydrazide]
IC50 [2, 3]: > 63 µM

O=C(N/N=C/c1ccc([N+](=O)[O-])o1)c1ccccc1 [Compound 18, N′-((5-nitrofuran-2-yl)methylene)benzohydrazide]
IC50 [1, 4]: 12 µM

O=C(N/N=C/c1ccc([N+](=O)[O-])o1)c1ccncc1 [Compound 19, N′-((5-nitrofuran-2-yl)methylene)isonicotinohydrazide]
IC50 [1, 4]: 23 µM

O=C(N/N=C/c1ccc(O)c2ncccc12)c1ccc(Cl)s1 [Compound 4, 5-chloro-N′-((8-hydroxyquinolin-5-yl)methylene)thiophene-2-carbohydrazide]
IC50 [1]: 4 µM | IC50 [2, 3]: > 63 µM

O=C1CN(/N=C/c2ccc([N+](=O)[O-])o2)C(=O)N1 [Nitrofurantoin, reference compound]
GroEL/ES inhibition in words [1]: weak to moderate GroEL/ES inhibitors | IC50 [1, 4]: 84 µM

O=C(N/N=C/c1ccc(O)c2ncccc12)c1ccc(NS(=O)(=O)c2cccs2)cc1 [Compound 13, N-(4-(2-((8-hydroxyquinolin-5-yl)methylene)hydrazine-1-carbonyl)phenyl)thiophene-2-sulfonamide]
IC50 [1]: 1.9 µM | IC50 [2, 3]: > 63 µM

CCN(CC)S(=O)(=O)c1cccc(C(=O)N/N=C/c2ccc(O)c3ncccc23)c1 [Compound 12, N,N-diethyl-3-(2-((8-hydroxyquinolin-5-yl)methylene)hydrazine-1-carbonyl)benzenesulfonamide]
IC50 [1]: 21 µM | IC50 [2, 3]: > 63 µM

O=C(N/N=C/c1ccc(O)c2ccccc12)c1ccccc1 [Compound 30, N′-((4-hydroxynaphthalen-1-yl)methylene)benzohydrazide]
IC50 [1]: > 83 µM | IC50 [2, 3]: > 63 µM

COc1ccc(C(=O)N/N=C/c2cccc3ncccc23)cc1 [Compound 31, 4-methoxy-N′-(quinolin-5-ylmethylene)benzohydrazide]
IC50 [1]: > 83 µM | IC50 [2, 3]: > 63 µM

O=C(N/N=C/c1ccc([N+](=O)[O-])o1)c1ccc(O)cc1 [Nifuroxazide, reference compound]
GroEL/ES inhibition in words [1]: weak to moderate GroEL/ES inhibitors | IC50 [1, 4]: 19 µM | IC50 [2]: > 63 µM

O=Cc1ccc(O)c2ncccc12 [Compound 40, reference compound]
IC50 [1]: > 83 µM | IC50 [2, 3]: > 63 µM

O=C(N/N=C/c1ccc(O)c2ncccc12)c1cccc2ccccc12 [Compound 9, N′-((8-hydroxyquinolin-5-yl)methylene)-1-naphthohydrazide]
IC50 [1]: 7.7 µM | IC50 [2, 3]: > 63 µM

O=C(N/N=C/c1ccc([N+](=O)[O-])o1)c1ccc(NS(=O)(=O)c2cccs2)cc1 [Compound 26, N-(4-(2-((5-nitrofuran-2-yl)methylene)hydrazine-1-carbonyl)phenyl)thiophene-2-sulfonamide]
IC50 [1]: 6 µM | IC50 [2, 3]: > 63 µM

CCOc1ccc(S(=O)(=O)Nc2ccc(C(=O)N/N=C/c3ccc(O)c4ncccc34)cc2)cc1 [Compound 15, 4-ethoxy-N-(4-(2-((8-hydroxyquinolin-5-yl)methylene)hydrazine-1-carbonyl)phenyl)benzenesulfonamide]
IC50 [1]: 3.1 µM | IC50 [2, 3]: > 63 µM

O=C(N/N=C/c1ccc(O)cc1)c1ccccc1 [Compound 36, N′-(4-hydroxybenzylidene)benzohydrazide]
IC50 [1]: > 83 µM | IC50 [2, 3]: > 63 µM

COc1ccc(C(=O)N/N=C/c2ccco2)cc1 [Compound 39, N′-(furan-2-ylmethylene)-4-methoxybenzohydrazide]
IC50 [1]: > 83 µM | IC50 [2, 3]: > 63 µM

O=C(N/N=C/c1cccc2ccccc12)c1ccccc1 [Compound 34, N′-(naphthalen-1-ylmethylene)benzohydrazide]
IC50 [1]: > 83 µM | IC50 [2, 3]: > 63 µM

O=C(N/N=C/c1ccc(O)c2ncccc12)c1ccccc1 [Compound 5, N′-((8-hydroxyquinolin-5-yl)methylene)benzohydrazide]
IC50 [1]: > 83 µM | IC50 [2, 3]: > 63 µM

O=C(N/N=C/c1ccc(O)c2ncccc12)c1ccc(NS(=O)(=O)c2ccc(Br)cc2)cc1 [Compound 14, 4-bromo-N-(4-(2-((8-hydroxyquinolin-5-yl)methylene)hydrazine-1-carbonyl)phenyl)benzenesulfonamide]
IC50 [1]: 3.6 µM | IC50 [2, 3]: > 63 µM

COc1ccc(C(=O)N/N=C/c2ccc(O)c3ncccc23)cc1 [Compound 1, N′-((8-hydroxyquinolin-5-yl)methylene)-4-methoxybenzohydrazide]
IC50 [1]: 66 µM | IC50 [2, 3]: > 63 µM

CCN(CC)S(=O)(=O)c1cccc(C(=O)N/N=C/c2ccc([N+](=O)[O-])o2)c1 [Compound 25, N,N-diethyl-3-(2-((5-nitrofuran-2-yl)methylene)hydrazine-1-carbonyl)benzenesulfonamide]
IC50 [1]: 6 µM | IC50 [2, 3]: > 63 µM

O=C(N/N=C/c1ccccc1)c1ccccc1 [Compound 38, N′-benzylidenebenzohydrazide]
IC50 [1]: > 83 µM | IC50 [2, 3]: > 63 µM

O=C(N/N=C/c1ccc(O)c2ncccc12)c1ccc(O)cc1 [Compound 7, 4-hydroxy-N′-((8-hydroxyquinolin-5-yl)methylene)benzohydrazide]
IC50 [1]: 16 µM | IC50 [2, 3]: > 63 µM

CN(C)c1ccc(C(=O)N/N=C/c2ccc([N+](=O)[O-])o2)cc1 [Compound 21, 4-(dimethylamino)-N′-((5-nitrofuran-2-yl)methylene)benzohydrazide]
IC50 [1, 4]: 12 µM

COc1ccc(C(=O)N/N=C/c2ccc([N+](=O)[O-])o2)cc1 [Compound 20, 4-methoxy-N′-((5-nitrofuran-2-yl)methylene)benzohydrazide]
IC50 [1, 4]: 10 µM
